Results published in patent US9187484B2 (Southern Research Institute, priority 2012, dated 2015).

Target: T1, LRRK2 (G2019S) (Homo sapiens, UniProt Q5S007, G2019S)
T1 construct: Recombinant GST-LRRK2 (delta970), purified from baculovirus infected insect cells (SF9); GST (N); host or cells: baculovirus infected insect cells (SF9)
Test: LRRK2 inhibition, radiometric kinase assay with recombinant GST-LRRK2 (delta970) and peptide substrate
Assay type: biochemical
Settings: GST-LRRK2 (delta970) G2019S 30 nM, ATP ~52 μM (Km), 30 min at 30° C.
Experimental: Compounds were assessed for inhibition of LRRK2 inhibition using the following procedure.
Recombinant GST-LRRK2 (delta970), purified from baculovirus infected insect cells (SF9), at least 90% pure and either wild-type sequence or bearing the pathogenic G2019S mutation, was combined into a kinase buffer at 30 nM concentration. Kinase buffer consists of 50 mM Tris HCl pH 7.4, 1 mM EDTA, and 50 μM peptide substrate (amino acid sequence […]). Experimental compounds or control (no compound) were added at desired concentrations in DMSO and water, where final concentration of DMSO in kinase reactions was 0.1% for all drug concentrations. Activation buffer that consists of a final concentration in the reactions of 10 mM MgCl2 and ATP (˜92 μM for WT-LRRK2 reactions and ˜52 μM for G2019S-LRRK2, which represent respective Km ATP concentrations) were added to each reaction, in addition to 0.5 μCi of gamma-32-P-dATP per reaction. Reactions were incubated at 1400 RPM at 30° C. for 30 min. and then spotted in triplicate directly onto a slot-blot apparatus fitted with phospho-cellulose paper and allowed to dry. Each slot was then washed with 10 mM phosphoric acid buffer until beta-radiation could not be detected in eluted wash buffer, usually ˜1 mL per slot. Paper within each slot were excised and radiation measured by liquid scintillation.

T1 sequence (Q5S007 970-2527 G2019S limits assumed): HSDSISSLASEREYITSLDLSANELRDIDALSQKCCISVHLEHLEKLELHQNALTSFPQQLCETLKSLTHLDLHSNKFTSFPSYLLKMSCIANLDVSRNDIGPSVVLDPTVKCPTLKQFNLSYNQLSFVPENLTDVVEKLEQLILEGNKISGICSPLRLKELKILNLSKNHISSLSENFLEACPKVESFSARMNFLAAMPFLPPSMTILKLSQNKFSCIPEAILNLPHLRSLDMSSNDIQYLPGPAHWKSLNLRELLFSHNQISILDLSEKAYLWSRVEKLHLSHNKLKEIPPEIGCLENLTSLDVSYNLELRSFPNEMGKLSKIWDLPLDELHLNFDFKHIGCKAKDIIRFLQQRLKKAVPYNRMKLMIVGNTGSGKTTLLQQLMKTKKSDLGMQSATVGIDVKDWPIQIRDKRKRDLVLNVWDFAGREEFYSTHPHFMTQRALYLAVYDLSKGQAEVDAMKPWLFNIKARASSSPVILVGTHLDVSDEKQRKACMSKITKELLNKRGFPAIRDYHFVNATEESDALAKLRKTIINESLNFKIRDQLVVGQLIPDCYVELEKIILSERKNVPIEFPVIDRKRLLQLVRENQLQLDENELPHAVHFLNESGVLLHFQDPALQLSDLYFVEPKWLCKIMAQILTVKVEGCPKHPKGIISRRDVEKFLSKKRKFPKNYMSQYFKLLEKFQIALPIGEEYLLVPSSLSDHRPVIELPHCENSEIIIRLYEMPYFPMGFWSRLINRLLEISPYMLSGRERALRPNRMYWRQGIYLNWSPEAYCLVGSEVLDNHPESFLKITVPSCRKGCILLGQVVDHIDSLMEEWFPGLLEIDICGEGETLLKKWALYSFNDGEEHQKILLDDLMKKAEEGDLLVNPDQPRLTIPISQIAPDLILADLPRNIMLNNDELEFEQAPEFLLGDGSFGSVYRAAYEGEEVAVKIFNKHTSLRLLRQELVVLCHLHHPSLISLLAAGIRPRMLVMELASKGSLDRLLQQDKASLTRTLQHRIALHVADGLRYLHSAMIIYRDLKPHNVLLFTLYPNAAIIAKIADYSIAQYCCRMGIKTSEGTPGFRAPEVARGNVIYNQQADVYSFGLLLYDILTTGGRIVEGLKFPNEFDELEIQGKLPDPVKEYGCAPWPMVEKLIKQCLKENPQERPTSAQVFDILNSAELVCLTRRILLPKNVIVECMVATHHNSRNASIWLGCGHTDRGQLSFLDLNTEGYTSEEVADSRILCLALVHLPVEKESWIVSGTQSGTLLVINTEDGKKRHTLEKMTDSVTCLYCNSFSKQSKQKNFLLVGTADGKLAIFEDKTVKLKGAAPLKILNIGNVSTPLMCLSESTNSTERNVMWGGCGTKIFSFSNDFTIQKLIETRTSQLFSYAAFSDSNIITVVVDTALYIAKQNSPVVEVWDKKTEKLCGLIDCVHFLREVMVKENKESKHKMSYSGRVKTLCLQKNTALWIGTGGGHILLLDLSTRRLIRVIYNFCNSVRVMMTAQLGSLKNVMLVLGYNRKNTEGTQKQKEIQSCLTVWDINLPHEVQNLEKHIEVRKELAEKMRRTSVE

Row | SMILES | IC50 [nM]
1 | CCC(Sc1ccc2nnc(-c3ccc(C(F)(F)F)cc3)n2n1)C(N)=O (stereo not drawn) [Example 78, 2-((3-(4-(trifluoromethyl)phenyl)-[1,2,4]triazolo[4,3-b]pyridazin-6-yl)thio)butanamide] | ≥ 5000
2 | CCC(Sc1ccc2nnc(-c3ccc(F)c(F)c3)n2n1)C(N)=O (stereo not drawn) [Example 79, 2-((3-(3,4-difluorophenyl)-[1,2,4]triazolo[4,3-b]pyridazin-6-yl)thio)butanamide] | 1000 to 5000
3 | CCC(Sc1ccc2nnc(-c3ccccc3F)n2n1)C(N)=O (stereo not drawn) [Example 80, 2-((3-(2-fluorophenyl)-[1,2,4]triazolo[4,3-b]pyridazin-6-yl)thio)butanamide] | 100 to 1000
4 | CCC(Oc1ccc2nnc(-c3cccs3)n2n1)C(=O)O (stereo not drawn) [Example 83, 2-((3-(thiophen-2-yl)-[1,2,4]triazolo[4,3-b]pyridazin-6-yl)oxy)butanoic acid] | ≥ 5000
5 | CCC(Oc1ccc2nnc(-c3cccs3)n2n1)C(=O)N1CCCCC1 (stereo not drawn) [Example 85, 1-(piperidin-1-yl)-2-((3-(thiophen-2-yl)-[1,2,4]triazolo[4,3-b]pyridazin-6-yl)oxy)butan-1-one] | ≥ 5000
6 | CCC(Sc1ccc2nnc(-c3cccs3)n2n1)C(=O)Nc1ccccc1 (stereo not drawn) [Example 86, N-phenyl-2-((3-(thiophen-2-yl)-[1,2,4]triazolo[4,3-b]pyridazin-6-yl)thio)butanamide] | ≥ 5000
7 | CCc1ccc(-c2nnc3ccc(SC(CC)C(=O)N4CCCCC4)nn23)s1 (stereo not drawn) [Example 87, 2-((3-(5-ethylthiophen-2-yl)-[1,2,4]triazolo[4,3-b]pyridazin-6-yl)thio)-1-(piperidin-1-yl)butan-1-one] | 100 to 1000
8 | CCC(Sc1ccc2nnc(-c3ccc(C)s3)n2n1)C(=O)O (stereo not drawn) [Example 89, 2-((3-(5-methylthiophen-2-yl)-[1,2,4]triazolo[4,3-b]pyridazin-6-yl)thio)butanoic acid] | 100 to 1000
9 | CCCC(Sc1ccc2nnc(-c3cccs3)n2n1)C(=O)O (stereo not drawn) [Example 92, 2-((3-(thiophen-2-yl)-[1,2,4]triazolo[4,3-b]pyridazin-6-yl)thio)pentanoic acid] | 100 to 1000
10 | CCC(Sc1ccc2nnc(-c3ccccc3F)n2n1)C(=O)N1CCCCC1 (stereo not drawn) [Example 94, 2-((3-(2-fluorophenyl)-[1,2,4]triazolo[4,3-b]pyridazin-6-yl)thio)-1-(piperidin-1-yl)butan-1-one] | 100 to 1000
11 | CCC(Sc1ccc2nnc(-c3cccc(F)c3)n2n1)C(=O)N1CCCCC1 (stereo not drawn) [Example 97, 2-((3-(3-fluorophenyl)-[1,2,4]triazolo[4,3-b]pyridazin-6-yl)thio)-1-(piperidin-1-yl)butan-1-one] | 100 to 1000
12 | CCC(Nc1ccc2nnc(-c3cccs3)n2n1)C(=O)OC (stereo not drawn) [Example 98, methyl 2-((3-(thiophen-2-yl)-[1,2,4]triazolo[4,3-b]pyridazin-6-yl)amino)butanoate] | ≥ 5000
13 | CCC(Nc1ccc2nnc(-c3cccs3)n2n1)C(N)=O (stereo not drawn) [Example 99, 2-((3-(thiophen-2-yl)-[1,2,4]triazolo[4,3-b]pyridazin-6-yl)amino)butanamide] | ≥ 5000
14 | CCC(Nc1ccc2nnc(-c3cccs3)n2n1)C(=O)N1CCCCC1 (stereo not drawn) [Example 100, 1-(piperidin-1-yl)-2-((3-(thiophen-2-yl)-[1,2,4]triazolo[4,3-b]pyridazin-6-yl)amino)butan-1-one] | ≥ 5000
15 | CC(Sc1ccc2nnc(-c3cccs3)n2n1)C(=O)N1CCC1 (stereo not drawn) [Example 101, 1-(azetidin-1-yl)-2-((3-(thiophen-2-yl)-[1,2,4]triazolo[4,3-b]pyridazin-6-yl)thio)propan-1-one] | < 100
16 | CCOC(=O)C1CCCN(C(=O)C(CC)Sc2ccc3nnc(-c4cccs4)n3n2)C1 (stereo not drawn) [Example 103, ethyl 1-(2-((3-(thiophen-2-yl)-[1,2,4]triazolo[4,3-b]pyridazin-6-yl)thio)butanoyl)piperidine-3-carboxylate] | 1000 to 5000
17 | CCC(Sc1ccc2nnc(-c3cccs3)n2n1)C(=O)N1CCCCC1C (stereo not drawn) [Example 104, 1-(2-methylpiperidin-1-yl)-2-((3-(thiophen-2-yl)-[1,2,4]triazolo[4,3-b]pyridazin-6-yl)thio)butan-1-one] | 100 to 1000
18 | CC(C)(Sc1ccc2nnc(-c3cccs3)n2n1)C(=O)N1CCCC1 [Example 107, 2-methyl-1-(pyrrolidin-1-yl)-2-((3-(thiophen-2-yl)-[1,2,4]triazolo[4,3-b]pyridazin-6-yl)thio)propan-1-one] | 1000 to 5000
19 | CC(Sc1ccc2nnc(-c3cnccn3)n2n1)C(=O)N1CCCCC1 (stereo not drawn) [Example 108, 1-(piperidin-1-yl)-2-((3-(pyrazin-2-yl)-[1,2,4]triazolo[4,3-b]pyridazin-6-yl)thio)propan-1-one] | 100 to 1000

The next lines start with the values.

Row | IC50 [nM] | SMILES
20 | ≥ 5000 | CCOC(=O)C(CC)Sc1ccc2nnc(-c3ccc(C(F)(F)F)cc3)n2n1 (stereo not drawn) [Example 77, ethyl 2-((3-(4-(trifluoromethyl)phenyl)-[1,2,4]triazolo[4,3-b]pyridazin-6-yl)thio)butanoate]
21 | 100 to 1000 | CCC(Sc1ccc2nnc(-c3cccc(F)c3)n2n1)C(N)=O (stereo not drawn) [Example 81, 2-((3-(3-fluorophenyl)-[1,2,4]triazolo[4,3-b]pyridazin-6-yl)thio)butanamide]
22 | ≥ 5000 | CCOC(=O)C(CC)Oc1ccc2nnc(-c3cccs3)n2n1 (stereo not drawn) [Example 82, ethyl 2-((3-(thiophen-2-yl)-[1,2,4]triazolo[4,3-b]pyridazin-6-yl)oxy)butanoate]
23 | ≥ 5000 | CCC(Oc1ccc2nnc(-c3cccs3)n2n1)C(N)=O (stereo not drawn) [Example 84, 2-((3-(thiophen-2-yl)-[1,2,4]triazolo[4,3-b]pyridazin-6-yl)oxy)butanamide]
24 | 1000 to 5000 | CCc1ccc(-c2cnc3ccc(SC(CC)C(=O)O)nn23)s1 (stereo not drawn) [Example 88, 2-((3-(5-ethylthiophen-2-yl)imidazo[1,2-b]pyridazin-6-yl)thio)butanoic acid]
25 | 1000 to 5000 | NC(=O)CS(=O)(=O)c1ccc2nnc(-c3cccs3)n2n1 [Example 91, 2-((3-(thiophen-2-yl)-[1,2,4]triazolo[4,3-b]pyridazin-6-yl)sulfonyl)acetamide]
26 | 100 to 1000 | CCCC(Sc1ccc2nnc(-c3cccs3)n2n1)C(=O)N1CCCCC1 (stereo not drawn) [Example 93, 1-(piperidin-1-yl)-2-((3-(thiophen-2-yl)-[1,2,4]triazolo[4,3-b]pyridazin-6-yl)thio)pentan-1-one]
27 | 1000 to 5000 | CCC(Sc1ccc2nnc(-c3ccc(C(F)(F)F)cc3)n2n1)C(=O)N1CCCCC1 (stereo not drawn) [Example 95, 1-(piperidin-1-yl)-2-((3-(4-(trifluoromethyl)phenyl)-[1,2,4]triazolo[4,3-b]pyridazin-6-yl)thio)butan-1-one]
28 | 100 to 1000 | CCC(Sc1ccc2nnc(-c3ccc(F)c(F)c3)n2n1)C(=O)N1CCCCC1 (stereo not drawn) [Example 96, 2-((3-(3,4-difluorophenyl)-[1,2,4]triazolo[4,3-b]pyridazin-6-yl)thio)-1-(piperidin-1-yl)butan-1-one]
29 | < 100 | CC(Sc1ccc2nnc(-c3cccs3)n2n1)C(=O)N1CCCC1 (stereo not drawn) [Example 105, 1-(pyrrolidin-1-yl)-2-((3-(thiophen-2-yl)-[1,2,4]triazolo[4,3-b]pyridazin-6-yl)thio)propan-1-one]
30 | 100 to 1000 | CCC(Sc1ccc2nnc(-c3ccccc3)n2n1)C(=O)N1CCCCC1 (stereo not drawn) [Example 106, 2-((3-phenyl-[1,2,4]triazolo[4,3-b]pyridazin-6-yl)thio)-1-(piperidin-1-yl)butan-1-one]
